Experimental findings from ChEMBL document CHEMBL4483862, “Open-source discovery of chemical leads for next-generation chemoprotective antimalarials” (2018) are described below.

One may read the IC50 as the concentration needed to halve the response being measured. As usually defined, the IC90 is the concentration needed for an effect of 90%.

The experiment concerns Plasmodium berghei. Description: Luciferase/luciferin-expressing antifolate-resistant parasites were used to infect a culture of HepG2 cells that were pre-incubated with compounds. Infected hepatocytes emit light due to the luciferase reaction. Assay results are presented as the percent inhibition of light emission compared to control. […]. The class given is functional. The settings on record: sporozoite; for IC90: read-out: LUCIFERASE INFECTION ASSAY - IC90.

`O=C(Nc1ccccc1Cc1ccccc1)c1ccccc1NS(=O)(=O)c1ccc(Cl)s1`: the concentration for an effect of 90% (IC90) is 3.48 µM. The IC50 (FFLUC_HILL_SLOPE 7.32, FFLUC_R_SQUARED 0.665, HEPG2TOX_HILL_SLOPE 2.07, HEPG2TOX_R_SQUARED 0.984, PBLUC_HILL_SLOPE 54.5, PBLUC_R_SQUARED 0.445, read-out: LUCIFERASE INFECTION ASSAY - IC50) stood at 3.34 µM.
On to `CNc1nc2cnc(Nc3cccc(F)c3)cc2n1-c1cccc(C(F)(F)F)c1`, for which the IC90 was more than 10 µM. For the same molecule, under “FFLUC_HILL_SLOPE 8.44, FFLUC_R_SQUARED 0.0352, read-out: LUCIFERASE INFECTION ASSAY - IC50”, the 50% inhibitory concentration (IC50) was more than 10 µM.
For the molecule `COc1ccc(NS(=O)(=O)c2cc(NC(=O)c3cc(C4CC4)on3)ccc2N2CCCCC2)cc1`, the 90% effect concentration (IC90) is more than 10 µM. The IC50 (FFLUC_HILL_SLOPE 8.45, FFLUC_R_SQUARED 0.551, read-out: LUCIFERASE INFECTION ASSAY - IC50) was more than 10 µM.
On to `C(=C(c1nc2ccccc2s1)c1nc2ccccc2s1)C1=C(c2ccccc2)Oc2ccccc2O1`, for which the IC90 is more than 10 µM. Further, the IC50 (FFLUC_HILL_SLOPE 7.98, FFLUC_R_SQUARED 0.561, PBLUC_HILL_SLOPE 1.21, PBLUC_R_SQUARED 0.509, read-out: LUCIFERASE INFECTION ASSAY - IC50) was 9.27 µM.
As to `NS(=O)(=O)c1ccc(CCNc2nn3c(-c4cccc(C(F)(F)F)c4)cnc3s2)cc1`, the 90% effect concentration (IC90) was more than 7.06 µM. For the same molecule, for the setting “FFLUC_HILL_SLOPE 7.49, FFLUC_R_SQUARED 0.26, read-out: LUCIFERASE INFECTION ASSAY - IC50”, the IC50 is more than 7.06 µM.
Take `COCCCn1c(C)cc(C(=O)CSc2nc3scc(-c4ccccc4)c3c(=O)n2C)c1C`: the IC90 is more than 10 µM. Further, the IC50 (FFLUC_HILL_SLOPE 7.71, FFLUC_R_SQUARED 0.356, PBLUC_HILL_SLOPE 2.63, PBLUC_R_SQUARED 0.68, read-out: LUCIFERASE INFECTION ASSAY - IC50) was found to be 6.41 µM.
Consider `O/N=C/c1ncc(C(F)(F)F)cc1Sc1ccc(Cl)cc1`, for which the concentration for an effect of 90% (IC90) is more than 9.92 µM. Besides, under “FFLUC_HILL_SLOPE 8, FFLUC_R_SQUARED 0.0374, HEPG2TOX_HILL_SLOPE 8.44, HEPG2TOX_R_SQUARED 0.673, PBLUC_HILL_SLOPE 11.8, PBLUC_R_SQUARED 0.204, read-out: LUCIFERASE INFECTION ASSAY - IC50”, the IC50 stood at 9.28 µM.
Regarding `O=C(Nc1ccc(S(=O)(=O)N2CCCC2)cc1)c1cc([N+](=O)[O-])ccc1Sc1nnnn1-c1ccccc1`, the 90% effect concentration (IC90) is more than 10 µM. For the same molecule, where the note is “FFLUC_HILL_SLOPE 8.42, FFLUC_R_SQUARED 0.732, read-out: LUCIFERASE INFECTION ASSAY - IC50”, the IC50 was more than 10 µM.
Turning to `O=C(CSc1nn(Cc2ccccc2)/c(=N\Cc2ccccc2)s1)NC(=O)NC1CCCCC1`, the concentration for an effect of 90% (IC90) is more than 10 µM. Further, the IC50 (FFLUC_HILL_SLOPE 7.96, FFLUC_R_SQUARED 0.22, read-out: LUCIFERASE INFECTION ASSAY - IC50) was more than 10 µM.
Take `COC(=O)c1ccc(OC(=O)c2cc3c(s2)CCC3)cc1`: the IC90 was more than 10 µM. In addition, the concentration for half-maximal inhibition (IC50) (FFLUC_HILL_SLOPE 8.2, FFLUC_R_SQUARED 0.68, read-out: LUCIFERASE INFECTION ASSAY - IC50) was more than 10 µM.
On to `CN1CCN(c2ccc(-c3cn4c(-c5ccc(O)cc5)cnc4cn3)cc2)CC1`, for which the IC90 was more than 8.56 µM. Further, the IC50 (FFLUC_HILL_SLOPE 7.73, FFLUC_R_SQUARED 0.293, read-out: LUCIFERASE INFECTION ASSAY - IC50) is more than 8.56 µM.
In the case of `O=C(COC(=O)/C=C/c1ccc(I)o1)Nc1cc(S(=O)(=O)N2CCCCC2)ccc1Cl`, the IC90 was more than 10 µM. Also, the IC50 (FFLUC_HILL_SLOPE 7.36, FFLUC_R_SQUARED 0.327, read-out: LUCIFERASE INFECTION ASSAY - IC50) was more than 10 µM.
Turning to `CC(C)NC(=O)Nc1ccc(OCc2ncc(C(F)(F)F)cc2Cl)cc1`, the IC90 was more than 8.51 µM. The half-inhibitory concentration (IC50) (FFLUC_HILL_SLOPE 8.07, FFLUC_R_SQUARED 0.113, HEPG2TOX_HILL_SLOPE 6.87, HEPG2TOX_R_SQUARED 0.428, PBLUC_HILL_SLOPE 0.555, PBLUC_R_SQUARED 0.618, read-out: LUCIFERASE INFECTION ASSAY - IC50) was determined as 1.56 µM.
With `FC(F)(F)c1cccc(Nc2nccc3nc(-c4ccccc4Cl)[nH]c23)c1`, the IC90 was more than 10 µM. Further, the half-inhibitory concentration (IC50) (FFLUC_HILL_SLOPE 7.35, FFLUC_R_SQUARED 0.132, HEPG2TOX_HILL_SLOPE 0.352, HEPG2TOX_R_SQUARED 0.695, PBLUC_HILL_SLOPE 1.25, PBLUC_R_SQUARED 0.396, read-out: LUCIFERASE INFECTION ASSAY - IC50) was found to be 3.07 µM.
For `CCc1nc(SCC(=O)Nc2nsc(-c3ccc(C(C)(C)C)cc3)n2)c2c3c(sc2n1)CCC3`, the concentration for an effect of 90% (IC90) is more than 10 µM. In addition, under “FFLUC_HILL_SLOPE 7.48, FFLUC_R_SQUARED 0.446, read-out: LUCIFERASE INFECTION ASSAY - IC50”, the 50% inhibitory concentration (IC50) was more than 10 µM.
Consider `C=CCN(c1ccc(F)cc1)S(=O)(=O)c1cc(C(=O)OCC(=O)C23CC4CC(CC(C4)C2)C3)ccc1Cl`, for which the IC90 is more than 10 µM. For the same molecule, where the note is “FFLUC_HILL_SLOPE 7.93, FFLUC_R_SQUARED 0.0643, HEPG2TOX_HILL_SLOPE 7, HEPG2TOX_R_SQUARED 0.225, PBLUC_HILL_SLOPE 4.62, PBLUC_R_SQUARED 0.186, read-out: LUCIFERASE INFECTION ASSAY - IC50”, the IC50 was determined as 6.94 µM.
Regarding `Cc1cccc(Cn2nc(C(C)(C)C)cc2-c2nnc(SCC(=O)c3ccc(Cl)cc3)o2)c1`, the IC90 is more than 6.86 µM. The half-maximal inhibitory concentration (IC50) (FFLUC_HILL_SLOPE 7.72, FFLUC_R_SQUARED 0.435, PBLUC_HILL_SLOPE 3.63, PBLUC_R_SQUARED 0.42, read-out: LUCIFERASE INFECTION ASSAY - IC50) turned out to be 6.23 µM.
As to `COCc1nn2c3c(nnc2c1-c1ccccc1)C(=O)CC(c1ccccc1)C3` (stereo unspecified), the IC90 was found to be 3.29 µM. In addition, the concentration for half-maximal inhibition (IC50) (FFLUC_HILL_SLOPE 8, FFLUC_R_SQUARED 0.814, HEPG2TOX_HILL_SLOPE 2.3, HEPG2TOX_R_SQUARED 0.367, PBLUC_HILL_SLOPE 4.06, PBLUC_R_SQUARED 0.599, read-out: LUCIFERASE INFECTION ASSAY - IC50) was 1.92 µM.
As for `Cc1cc2n(n1)c(C)cc(C)[n+]2-c1ccccc1`, the concentration for an effect of 90% (IC90) amounted to 4.57 µM. Besides, where the note is “FFLUC_HILL_SLOPE 7.82, FFLUC_R_SQUARED 0.313, HEPG2TOX_HILL_SLOPE 3.53, HEPG2TOX_R_SQUARED 0.979, PBLUC_HILL_SLOPE 9.65, PBLUC_R_SQUARED 0.44, read-out: LUCIFERASE INFECTION ASSAY - IC50”, the 50% inhibitory concentration (IC50) is 3.64 µM.
`Cc1sc2nc(-c3cccnc3)nc(N3CCOCC3)c2c1-c1ccccc1`: the IC90 came out at 9.9 µM. For the same molecule, where the note is “FFLUC_HILL_SLOPE 7.85, FFLUC_R_SQUARED 0.0779, PBLUC_HILL_SLOPE 15.6, PBLUC_R_SQUARED 0.278, read-out: LUCIFERASE INFECTION ASSAY - IC50”, the concentration for half-maximal inhibition (IC50) came to 8.61 µM.
In the case of `CC(C)Nc1nc(NCC2CCCCC2)c2sccc2n1`, the 90% effect concentration (IC90) is more than 10.8 µM. For the setting “FFLUC_HILL_SLOPE 8.35, FFLUC_R_SQUARED 0.136, PBLUC_HILL_SLOPE 0.461, PBLUC_R_SQUARED 0.456, read-out: LUCIFERASE INFECTION ASSAY - IC50”, the IC50 stood at 1.8 µM.
For the molecule `COc1ccc(-c2nnc(SCc3csc(-c4ccccc4)n3)n2CCc2ccccc2)cc1`, the IC90 was more than 10 µM. For the same molecule, the IC50 (FFLUC_HILL_SLOPE 7.96, FFLUC_R_SQUARED 0.134, read-out: LUCIFERASE INFECTION ASSAY - IC50) was more than 10 µM.
Take `CCCCNC(=O)c1c(NC(=O)c2ccc(C(F)(F)F)cc2)nc2ccccn12`: the IC90 came out at 0.365 µM. Further, the concentration for half-maximal inhibition (IC50) (FFLUC_HILL_SLOPE 8.16, FFLUC_R_SQUARED 0.656, HEPG2TOX_HILL_SLOPE 0.864, HEPG2TOX_R_SQUARED 0.784, PBLUC_HILL_SLOPE 12.7, PBLUC_R_SQUARED 0.564, read-out: LUCIFERASE INFECTION ASSAY - IC50) came to 0.306 µM.
As for `NC(=O)C1CCN(c2nc(/C=C/c3ccccc3)nc3sc4c(c23)CCCC4)CC1`, the 90% effect concentration (IC90) is more than 10 µM. In addition, for the setting “FFLUC_HILL_SLOPE 8.41, FFLUC_R_SQUARED 0.401, PBLUC_HILL_SLOPE 20.5, PBLUC_R_SQUARED 0.298, read-out: LUCIFERASE INFECTION ASSAY - IC50”, the concentration for half-maximal inhibition (IC50) was determined as 9.42 µM.
Consider `CCOC(=O)C1=C(C)NC2=C(C(=O)C(c3c(F)cccc3Cl)CC2)C1c1ccc(Cl)cc1Cl` (stereo unspecified), for which the IC90 is more than 6.49 µM. Moreover, the IC50 (FFLUC_HILL_SLOPE 7.96, FFLUC_R_SQUARED 0.479, HEPG2TOX_HILL_SLOPE 1.9, HEPG2TOX_R_SQUARED 0.947, PBLUC_HILL_SLOPE 15.9, PBLUC_R_SQUARED 0.177, read-out: LUCIFERASE INFECTION ASSAY - IC50) came out at 6.08 µM.
As to `NC(=O)c1ccsc1NC(=O)CN1CCC(c2c[nH]c3ccccc23)CC1`, the concentration for an effect of 90% (IC90) was more than 10 µM. Further, the half-maximal inhibitory concentration (IC50) (FFLUC_HILL_SLOPE 7.73, FFLUC_R_SQUARED 0.279, read-out: LUCIFERASE INFECTION ASSAY - IC50) is more than 10 µM.
Regarding `O=c1[nH]c2ccccc2c(-c2ccccc2)c1SCc1ccc2c(c1)OCO2`, the IC90 was more than 10 µM. Besides, the half-maximal inhibitory concentration (IC50) (FFLUC_HILL_SLOPE 8.09, FFLUC_R_SQUARED 0.216, HEPG2TOX_HILL_SLOPE 4.47, HEPG2TOX_R_SQUARED 0.957, PBLUC_HILL_SLOPE 2.12, PBLUC_R_SQUARED 0.535, read-out: LUCIFERASE INFECTION ASSAY - IC50) came to 4.38 µM.
`O=C1C(Cl)=C(Nc2ccc(O)cc2)C(=O)c2ccccc21`: the IC90 is 4.51 µM. Besides, under “FFLUC_HILL_SLOPE 7.86, FFLUC_R_SQUARED 0.408, HEPG2TOX_HILL_SLOPE 4.2, HEPG2TOX_R_SQUARED 0.984, PBLUC_HILL_SLOPE 12.7, PBLUC_R_SQUARED 0.571, read-out: LUCIFERASE INFECTION ASSAY - IC50”, the IC50 is 3.8 µM.
